Test results reported in patent publication US20200216439A1, “HETERO-1,5,6,7-TETRAHYDRO-4H-INDOL-4-ONES” (BAYER PHARMA AKTIENGESELLSCHAFT, priority 2015, published 2020).

Each compound was assayed against T1, catalytic domain of human Bub1 (amino acids 704-1085) (Homo sapiens, UniProt O43683) (assay: Bub1 kinase assay (TR-FRET)). Conditions: TR-FRET; ATP 10 μM, peptide substrate 1 μM; 60 min at 22° C.; average or median if tested more than once; read-out: Inhibition of Bub1 kinase IC50.
T1 construct: catalytic domain of human Bub1 (amino acids 704-1085); His6 (N); made in house; host or cells: Hi5 insect cells
T1 sequence (O43683 704-1085): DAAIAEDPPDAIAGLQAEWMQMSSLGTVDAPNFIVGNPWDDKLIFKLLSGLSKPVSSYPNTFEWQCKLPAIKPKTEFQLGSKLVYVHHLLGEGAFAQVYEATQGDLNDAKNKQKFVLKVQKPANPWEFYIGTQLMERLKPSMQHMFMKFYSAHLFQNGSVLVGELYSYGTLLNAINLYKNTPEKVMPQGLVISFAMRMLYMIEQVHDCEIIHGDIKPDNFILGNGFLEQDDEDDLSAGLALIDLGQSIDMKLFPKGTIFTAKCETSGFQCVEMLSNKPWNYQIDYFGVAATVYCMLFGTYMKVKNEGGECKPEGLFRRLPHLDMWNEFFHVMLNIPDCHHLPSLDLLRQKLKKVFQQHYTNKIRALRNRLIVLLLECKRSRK
Type: biochemical
Outline: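 Human Bub1 catalytic domain (704-1085, His6-tagged, Hi5-expressed, ~200 ng/mL) preincubated with compound 15 min at 22 °C, then reacted 60 min at 22 °C with 10 μM ATP and 1 μM biotinylated peptide substrate, pH 7.5. EDTA stop; TR-FRET 665/620 ratio; IC50 from 4-parameter fit, 11 concentrations in duplicate.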
Compound `CCNC(=O)N1CC(=O)c2c([nH]c(-c3ccncc3)c2Nc2ccccc2)C1` [Example 10, N-Ethyl-4-oxo-3-(phenylamino)-2-(pyridin-4-yl)-1,4,5,7-tetrahydro-6H-pyrrolo[2,3-c]pyridine-6-carboxamide] has an IC50 of 6 nM. `COc1cc(C(=O)Nc2cc(-c3[nH]c4c(c3Nc3ccccc3)C(=O)CN(S(=O)(=O)N(C)C)C4)ccn2)ccc1F` [Example 259, N-4-[6-(Dimethylsulfamoyl)-4-oxo-3-(phenylamino)-4,5,6,7-tetrahydro-1H-pyrrolo[2,3-c]pyridin-2-yl]pyridin-2-yl-4-fluoro-3-methoxybenzamide] showed an IC50 of 3 nM. `O=C1CN(C(=O)N2CCOCC2)Cc2[nH]c(-c3ccncc3OCC(F)(F)F)c(Nc3ccccc3)c21` [Example 245, 6-(Morpholin-4-ylcarbonyl)-3-(phenylamino)-2-[3-(2,2,2-trifluoroethoxy)pyridin-4-y]1,5,6,7-tetrahydro-4H-pyrrolo[2,3-c]pyridin-4-one] gave an IC50 of 73 nM. In the case of `CC(C)(C)OC(=O)N1CC(=O)c2c([nH]c(-c3ccnc(NC(=O)C4CC4(F)F)c3)c2Nc2ccccc2)C1` (racemic) [Example 121, tert-Butyl 2-[2-({[(1RS)-2,2-difluorocyclopropyl]carbonyl}amino)pyridin-4-yl]-4-oxo-3-(phenylamino)-1,4,5,7-tetrahydro-6H-pyrrolo[2,3-c]pyridine-6-carboxylate], the IC50 is reported as 10 nM. `CC(=O)N1CC(=O)c2c([nH]c(-c3ccncc3OCCN(C)C)c2Nc2ccccc2)C1` [Example 278, 6-Acetyl-2-3-[2-(dimethylamino)ethoxy]pyridin-4-yl-3-(phenylamino)-1,5,6,7-tetrahydro-4H-pyrrolo[2,3-c]pyridin-4-one] gave an IC50 of 23 nM. With `O=C(Nc1cc(-c2[nH]c3c(c2Nc2ccccc2)C(=O)COC3)ccn1)c1ccn[nH]1` [Example 145, N-[4-(3-Anilino-4-oxo-1,4,5,7-tetrahydropyrano[3,4-b]pyrrol-2-yl)pyridin-2-yl]-1H-pyrazole-5-carboxamide] the IC50 was 16 nM. `CN(C)S(=O)(=O)N1CC(=O)c2c([nH]c(-c3ccnc(NC(=O)[C@@H]4C[C@@H]4F)c3)c2Nc2ccccc2)C1` [Example 272, (1S,2S)—N-4-[6-(Dimethylsulfamoyl)-4-oxo-3-(phenylamino)-4,5,6,7-tetrahydro-1H-pyrrolo[2,3-c]pyridin-2-yl]pyridin-2-yl-2-fluorocyclopropanecarboxamide] was tested, and the IC50 was 4 nM. In the case of `CN(C)CC(=O)Nc1cc(-c2[nH]c3c(c2Nc2ccccc2)C(=O)COC3)ccn1` [Example 153, N-[4-(3-Anilino-4-oxo-1,4,5,7-tetrahydropyrano[3,4-b]pyrrol-2-yl)pyridin-2-yl]-N^2,N^2-dimethylglycinamide], the IC50 is reported as 510 nM. Compound `CC(=O)Nc1cc(-c2[nH]c3c(c2Nc2ccccc2)C(=O)CN(S(=O)(=O)C2CCOCC2)C3)ccn1` [Example 173, N-{4-[3-Anilino-4-oxo-6-(tetrahydro-2H-pyran-4-ylsulfonyl)-4,5,6,7-tetrahydro-1H-pyrrolo[2,3-c]pyridin-2-yl]pyridin-2-yl}acetamide] has an IC50 of 6 nM. `COc1cc(C(=O)Nc2cc(-c3[nH]c4c(c3Nc3ccccc3)C(=O)CN(C(C)=O)C4)ccn2)ccc1F` [Example 258] showed an IC50 of 10 nM. With `CC(C)C(=O)N1CC(=O)c2c([nH]c(-c3ccncc3)c2Nc2ccccc2)C1` [Example 17] the IC50 was 6 nM. `CC(=O)Nc1cc(-c2[nH]c3c(c2Nc2ccc(C)cc2)C(=O)CN(S(=O)(=O)C(C)C)C3)ccn1` [Example 318, N-(4-(3-[(4-Methylphenyl)amino]-4-oxo-(propan-2-ylsulfonyl)-1,5,6,7-tetrahydro-1H-pyrrolo[2,3-c]pyridin-2-yl)pyridin-2-yl)acetamide] gave an IC50 of 31 nM. In the case of `CC(=O)Nc1cc(-c2[nH]c3c(c2Nc2ccccc2)C(=O)CN(S(=O)(=O)N(C)C)C3)ccn1` [Example 254, N-4-[6(Dimethylsulfamoyl)-4-oxo-3-(phenylamino)-4,5,6,7-tetrahydro-1H-pyrrolo[2,3-c]pyridin-2-yl]pyridin-2-ylacetamide], the IC50 is reported as 4 nM.
